The target in the assay is Trypanosoma cruzi glucokinase (TcGlcK) (Trypanosoma cruzi, UniProt Q4E4E1). The assay can be described thus: Determination of Ki values by type 1 and type 2 Dixon plots.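 Further: compounds supplied as 10 mM DMSO stocks (100 µL format), with a non-inhibitory compound run alongside for comparison.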 In kind it is biochemical.
Trypanosoma cruzi glucokinase (TcGlcK), sequence (Q4E4E1 1-376): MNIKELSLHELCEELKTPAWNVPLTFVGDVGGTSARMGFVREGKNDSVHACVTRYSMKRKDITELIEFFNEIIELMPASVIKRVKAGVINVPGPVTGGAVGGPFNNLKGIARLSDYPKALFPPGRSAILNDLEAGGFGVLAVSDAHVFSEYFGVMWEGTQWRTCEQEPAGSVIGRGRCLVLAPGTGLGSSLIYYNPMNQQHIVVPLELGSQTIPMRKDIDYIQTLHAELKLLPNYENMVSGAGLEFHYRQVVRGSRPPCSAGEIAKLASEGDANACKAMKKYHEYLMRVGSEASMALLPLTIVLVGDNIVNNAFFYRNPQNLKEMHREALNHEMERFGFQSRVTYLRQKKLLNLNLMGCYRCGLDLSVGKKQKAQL

Description: The inhibition constant can be determined by development of a Dixon plot (either type 1 or type 2) according to standard practice, and as utilized herein refers to the inhibitor concentration at which half maximum inhibition is determined for a 100 μL/10 mM format in DMSO.
Determination of the Ki values for inhibitors was performed by creation of both type 1 and type 2 Dixon plots. The format included 100 μL/10 mM in DMSO.

Compound `Cc1cc2c(c(O)c1-c1c(C)cc3c(c1O)/C(=C/NCCO)C(=O)C(O)=C3C(C)C)/C(=C/NCCO)C(=O)C(O)=C2C(C)C` (atropisomer, axis not shown) [Inhibitor 13] yielded a Ki of 422 µM.

Take `Cc1cc2c(c(O)c1-c1c(C)cc3c(c1O)/C(=C/Nc1ccccc1O)C(=O)C(O)=C3C(C)C)/C(=C/Nc1ccccc1O)C(=O)C(O)=C2C(C)C` (atropisomer, axis not shown) [Inhibitor 14]: the Ki worked out at 468 µM.

`Cc1cc2c(c(O)c1-c1c(C)cc3c(c1O)/C(=C/Nc1ccccc1C(=O)O)C(=O)C(O)=C3C(C)C)/C(=C/Nc1ccccc1C(=O)O)C(=O)C(O)=C2C(C)C` (atropisomer, axis not shown) [Inhibitor 15] returned a Ki of 1.2 µM.

Compound `Cc1cc(-c2ccc(N/C=C3\C(=O)C(O)=C(C(C)C)c4cc(C)c(-c5c(C)cc6c(c5O)/C(=C/Nc5ccc(-c7ccc(N)c(C)c7)cc5C)C(=O)C(O)=C6C(C)C)c(O)c43)c(C)c2)ccc1N` (atropisomer, axis not shown) [Inhibitor 17] gave a Ki of 532 µM.

In turn, `Cc1cc2c(c(O)c1-c1c(C)cc3c(c1O)/C(=C/Nc1ccc(N=Nc4ccccc4)cc1)C(=O)C(O)=C3C(C)C)/C(=C/Nc1ccc(N=Nc3ccccc3)cc1)C(=O)C(O)=C2C(C)C` (atropisomer, axis not shown) [Inhibitor 18] returned a Ki of 45.5 µM.

Consider `CC(=O)c1ccc(N/C=C2\C(=O)C(O)=C(C(C)C)c3cc(C)c(-c4c(C)cc5c(c4O)/C(=C/Nc4ccc(C(C)=O)cc4)C(=O)C(O)=C5C(C)C)c(O)c32)cc1` (atropisomer, axis not shown) [Inhibitor 19], for which the affinity, expressed as Ki, was 10.4 µM.

`COc1cc(NS(=O)(=O)c2ccc(N/C=C3\C(=O)C(O)=C(C(C)C)c4cc(C)c(-c5c(C)cc6c(c5O)/C(=C/Nc5ccc(S(=O)(=O)Nc7cc(OC)nc(OC)n7)cc5)C(=O)C(O)=C6C(C)C)c(O)c43)cc2)nc(OC)n1` (atropisomer, axis not shown) [Inhibitor 20]: the affinity corresponds to a Ki of 11.2 µM.

In turn, `Cc1cc2c(c(O)c1-c1c(C)cc3c(c1O)/C(=C/Nc1c(C)n(C)n(-c4ccccc4)c1=O)C(=O)C(O)=C3C(C)C)/C(=C/Nc1c(C)n(C)n(-c3ccccc3)c1=O)C(=O)C(O)=C2C(C)C` (atropisomer, axis not shown) [Inhibitor 21] displayed a Ki of 9.5 µM.

Consider `Cc1cc2c(c(O)c1-c1c(C)cc3c(c1O)/C(=C/Nc1ccc(S(=O)(=O)Nc4nccs4)cc1)C(=O)C(O)=C3C(C)C)/C(=C/Nc1ccc(S(=O)(=O)Nc3nccs3)cc1)C(=O)C(O)=C2C(C)C` (atropisomer, axis not shown) [Inhibitor 23], for which the Ki came to 32.3 µM.

Compound `Cc1cc2c(c(O)c1-c1c(C)cc3c(c1O)/C(=C/Nc1ccc(S(N)(=O)=O)cc1)C(=O)C(O)=C3C(C)C)/C(=C/Nc1ccc(S(N)(=O)=O)cc1)C(=O)C(O)=C2C(C)C` (atropisomer, axis not shown) [Inhibitor 25] had a Ki of 74.3 µM.

`Cc1cc2c(c(O)c1-c1c(C)cc3c(c1O)/C(=C/NNC(=O)c1ccncc1)C(=O)C(O)=C3C(C)C)/C(=C/NNC(=O)c1ccncc1)C(=O)C(O)=C2C(C)C` (atropisomer, axis not shown) [Inhibitor 26] displayed a Ki of 213 µM.

With `Cc1cc2c(C(C)C)c(O)c(O)c(/C=N/n3c(=O)[nH][nH]c3=O)c2c(O)c1-c1c(C)cc2c(C(C)C)c(O)c(O)c(/C=N/n3c(=O)[nH][nH]c3=O)c2c1O` (atropisomer, axis not shown) [Inhibitor 33], the Ki worked out at 122 µM.

The compound `Cc1cc2c(C(C)C)c(O)c(O)c(/C=N/NC(=O)c3ccoc3C)c2c(O)c1-c1c(C)cc2c(C(C)C)c(O)c(O)c(/C=N/NC(=O)c3ccoc3C)c2c1O` (atropisomer, axis not shown) [Inhibitor 39] came in with a Ki of 9.16 µM.

Turning to `COc1ccc(OCC/N=C/c2c(O)c(O)c(C(C)C)c3cc(C)c(-c4c(C)cc5c(C(C)C)c(O)c(O)c(/C=N/CCOc6ccc(OC)cc6)c5c4O)c(O)c23)cc1` (atropisomer, axis not shown) [Inhibitor 40], the affinity, expressed as Ki, was 29.4 µM.

`Cc1cc2c(C(C)C)c(O)c(O)c(/C=N/CCOc3ccc4c(c3)OCC4)c2c(O)c1-c1c(C)cc2c(C(C)C)c(O)c(O)c(/C=N/CCOc3ccc4c(c3)OCO4)c2c1O` (atropisomer, axis not shown) [Inhibitor 41] showed a Ki of 328 µM.

The compound `CCCC(CCC)/N=C/c1c(O)c(O)c(C(C)C)c2cc(C)c(-c3c(C)cc4c(C(C)C)c(O)c(O)c(/C=N/C(CCC)CCC)c4c3O)c(O)c12` (atropisomer, axis not shown) [Inhibitor 46] displayed a Ki of 99.1 µM.

In turn, `COc1cc(/N=C/c2c(O)c(O)c(C(C)C)c3cc(C)c(-c4c(C)cc5c(C(C)C)c(O)c(O)c(/C=N/c6ccc(C)c(OC)c6)c5c4O)c(O)c23)ccc1C` (atropisomer, axis not shown) [Inhibitor 47] yielded a Ki of 29.1 µM.

The compound `COc1c(C)cc(/N=C/c2c(O)c(O)c(C(C)C)c3cc(C)c(-c4c(C)cc5c(C(C)C)c(O)c(O)c(/C=N/c6cc(C)c(OC)c(C)c6)c5c4O)c(O)c23)cc1C` (atropisomer, axis not shown) [Inhibitor 49] gave a Ki of 16.1 µM.

`Cc1cc2c(C(C)C)c(O)c(O)c(/C=N/c3ccc4c(c3)CCN4S(C)(=O)=O)c2c(O)c1-c1c(C)cc2c(C(C)C)c(O)c(O)c(/C=N/c3ccc4c(c3)CCN4S(C)(=O)=O)c2c1O` (atropisomer, axis not shown) [Inhibitor 51] gave a Ki of 0.8 µM.

Compound `Cc1ccc(O)c(/N=C/c2c(O)c(O)c(C(C)C)c3cc(C)c(-c4c(C)cc5c(C(C)C)c(O)c(O)c(/C=N/c6cc(C)ccc6O)c5c4O)c(O)c23)c1` (atropisomer, axis not shown) [Inhibitor 54] showed a Ki of 3.02 µM.

`COc1ccc(CC(=O)N/N=C/c2c(O)c(O)c(C(C)C)c3cc(C)c(-c4c(C)cc5c(C(C)C)c(O)c(O)c(/C=N/NC(=O)Cc6ccc(OC)c(OC)c6)c5c4O)c(O)c23)cc1OC` (atropisomer, axis not shown) [Inhibitor 55] registered a Ki of 41.6 µM.

The compound `Cc1cc2c(C(C)C)c(O)c(O)c(/C=N/Nc3nnnn3-c3ccccc3)c2c(O)c1-c1c(C)cc2c(C(C)C)c(O)c(O)c(/C=N/Nc3nnnn3-c3ccccc3)c2c1O` (atropisomer, axis not shown) [Inhibitor 60] returned a Ki of 53.3 µM.

Take `Cc1cc2c(c(O)c1-c1c(C)cc3c(c1O)/C(=C/NCc1cccnc1)C(=O)C(O)=C3C(C)C)/C(=C/NCc1cccnc1)C(=O)C(O)=C2C(C)C` (atropisomer, axis not shown) [Inhibitor 74]: the Ki is 123 µM.

In turn, `Cc1cc2c(C(C)C)c(O)c(O)c(/C=N/CCOc3ccccc3F)c2c(O)c1-c1c(C)cc2c(C(C)C)c(O)c(O)c(/C=N/CCOc3ccccc3F)c2c1O` (atropisomer, axis not shown) [Inhibitor 76] gave a Ki of 105 µM.

`Cc1ccc(OCC/N=C/c2c(O)c(O)c(C(C)C)c3cc(C)c(-c4c(C)cc5c(C(C)C)c(O)c(O)c(/C=N/CCOc6ccc(C)cc6Br)c5c4O)c(O)c23)c(Br)c1` (atropisomer, axis not shown) [Inhibitor 77] came in with a Ki of 42.3 µM.

`Cc1cc(OCC/N=C/c2c(O)c(O)c(C(C)C)c3cc(C)c(-c4c(C)cc5c(C(C)C)c(O)c(O)c(/C=N/CCOc6cc(C)c(Cl)c(C)c6Cl)c5c4O)c(O)c23)c(Cl)c(C)c1Cl` (atropisomer, axis not shown) [Inhibitor 79] yielded a Ki of 127 µM.

Broadly, the Ki is the dissociation constant of the complex between target and ligand, obtained from inhibition or displacement. Read a high Ki as weaker binding.

The record behind these values is patent US20250114359A1, “METHODS FOR […] G[…]/OR HEXOKINASE” (UNIVERSITY OF SOUTH CAROLINA, priority 2023, published 2025).
